Publication PMC4042666 (Bioorganic & medicinal chemistry letters, 2013)

Columns and labels:
[1] = biological target: HCV NS3/4A protease genotype 1b mutant A156T (Hepatitis C virus genotype 1b, UniProt Q9WMX2, A1182T); test: biochemical
[2] = biological target: Thrombin (Homo sapiens, UniProt P00734); test: Effect on human protease Thrombin; type: biochemical
[3] = tested on: HCV NS3/4A protease genotype 1b mutant A156T; test: biochemical; conditions: A156T vs wild type
[4] = biological target: Plasmin (Homo sapiens, UniProt P00747); test: Effect on human protease Plasmin; type: biochemical; conditions: read-out: Plasmin IC90
Chain of Plasmin (P00747 581-810 limits assumed): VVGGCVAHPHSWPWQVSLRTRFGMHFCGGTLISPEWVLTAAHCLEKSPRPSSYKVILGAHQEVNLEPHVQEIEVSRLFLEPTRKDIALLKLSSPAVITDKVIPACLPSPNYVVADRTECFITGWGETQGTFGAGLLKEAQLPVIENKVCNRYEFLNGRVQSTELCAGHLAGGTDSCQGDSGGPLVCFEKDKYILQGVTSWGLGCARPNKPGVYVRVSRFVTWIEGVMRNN
Chain of Plasmin (P00747 97-580 partner limits assumed): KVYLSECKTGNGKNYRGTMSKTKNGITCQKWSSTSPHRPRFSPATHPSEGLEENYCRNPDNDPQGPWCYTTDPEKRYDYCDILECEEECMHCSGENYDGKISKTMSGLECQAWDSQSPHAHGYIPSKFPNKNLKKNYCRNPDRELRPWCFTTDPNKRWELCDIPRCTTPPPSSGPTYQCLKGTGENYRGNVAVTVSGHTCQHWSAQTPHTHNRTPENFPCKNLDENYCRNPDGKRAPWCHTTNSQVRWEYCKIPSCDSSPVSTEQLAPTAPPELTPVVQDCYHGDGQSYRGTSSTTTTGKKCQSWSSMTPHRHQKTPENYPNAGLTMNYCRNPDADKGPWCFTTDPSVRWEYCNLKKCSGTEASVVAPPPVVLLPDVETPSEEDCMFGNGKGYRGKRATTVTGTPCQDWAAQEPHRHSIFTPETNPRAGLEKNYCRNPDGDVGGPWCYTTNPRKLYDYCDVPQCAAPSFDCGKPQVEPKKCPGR

[5] = tested on: HCV Replicon in Huh7 cells; test: Inhibition of HCV RNA replication, subgenomic HCV replicon system in Huh7 cells; type: cell-based, Hepatitis C virus
[6] = tested on: primary human PBM (peripheral blood mononuclear) cells; test: Cytotoxicity in PBM cells; type: cell-based
[7] = tested on: CEM cells (a human-T-cell-derived cell line); test: Cytotoxicity in CEM cells; type: cell-based
[8] = tested on: Vero cells (African green monkey kidney epithelial cells); test: Cytotoxicity in Vero cells; type: cell-based
[9] = tested on: HCV NS3/4A protease genotype 1b mutant A156S; type: biochemical; conditions: A156S vs wild type
[10] = tested on: HCV NS3/4A protease genotype 1b mutant V170A; type: biochemical; conditions: V170A vs wild type
[11] = tested on: Huh7 cells; test: Cytotoxicity in Huh7 cells
[12] = tested on: HCV NS3/4A protease genotype 1b mutant R155K; type: biochemical; conditions: R155K vs wild type
[13] = tested on: HCV NS3/4A protease genotype 1b mutant D168V; type: biochemical; conditions: D168V vs wild type

## CC(C)(C)NC(=O)N[C@H](C(=O)N1C[C@H]2[C@@H]([C@H]1C(=O)NC(CC1CCC1)C(=O)C(N)=O)C2(C)C)C(C)(C)C (stereo partly drawn) [Compound 1, boceprevir]
[1]
  EC90: > 100 µM
[2]
  Inhibition of thrombin, in words: submicromolar inhibition

## CCC[C@H](NC(=O)[C@@H]1[C@H]2CCC[C@H]2CN1C(=O)[C@@H](NC(=O)[C@@H](NC(=O)c1cnccn1)C1CCCCC1)C(C)(C)C)C(=O)C(=O)NC1CC1 [Compound 2, telaprevir]
[1]
  EC90: > 100 µM
[3]
  Fold Increase (FI) of EC90: > 130
[4]
  IC90: 110 ± 32 µM

## CCCC(NC(=O)C1N(C(=O)[C@@H](NC(=O)[C@@H](NC(=O)c2cnccn2)C2CCCCC2)C(C)(C)C)CC12Cc1ccccc1C2)C(=O)C(=O)NC1CC1 (stereo partly drawn) [Compound 37b]
[5]
  Anti-HCV activity, in words: complete loss of potency

## CCCC(NC(=O)C1CCN1C(=O)[C@@H](NC(=O)[C@@H](NC(=O)c1cnccn1)C1CCCCC1)C(C)(C)C)C(=O)C(=O)NC1CC1 (stereo partly drawn) [Compound 37d]
[5]
  Anti-HCV activity, in words: inactive

## CCCC(NC(=O)C1N(C(=O)[C@@H](NC(=O)[C@@H](NC(=O)c2cnccn2)C2CCCCC2)C(C)(C)C)CC12CCCCC2)C(=O)C(=O)NC1CC1 (stereo partly drawn) [Compound 37h]
[6]
  Toxicity in PBM cells, in words: toxicity in the micromolar range
[7]
  Toxicity in CEM cells, in words: toxicity in the micromolar range
[8]
  Toxicity in Vero cells, in words: toxicity in the micromolar range
[1]
  EC90: > 100 µM
[3]
  Fold Increase (FI) of EC50: > 130
  Fold Increase (FI) of EC90: > 10
[9]
  Fold Increase (FI) of EC90: > 10
[10]
  Fold Increase (FI) of EC50: > 1.2

## CCCC(NC(=O)C1N(C(=O)[C@@H](NC(=O)NC2CCCCC2)C(C)(C)C)CC12Cc1ccccc1C2)C(=O)C(=O)NC1CC1 (stereo partly drawn) [Compound 41e]
[11]
  Toxicity toward Huh7 cells, in words: toxic

## CC(C)(C)[C@H](NC(=O)NC1CCCCC1)C(=O)N1CC2(Cc3ccccc3C2)C1C(=O)NC(CC1CCC1)C(=O)C(=O)NC1CC1 (stereo partly drawn) [Compound 41f]
[11]
  Toxicity toward Huh7 cells, in words: toxic

## CC[C@@H]1C[C@]1(NC(=O)[C@@H]1C[C@@H]2CN1C(=O)[C@H](C(C)(C)C)NC(=O)OCC(C)(C)CCCCc1cccc3c1CN(C3)C(=O)O2)C(=O)NS(=O)(=O)C1CC1 [MK-7009, vaniprevir]
[1]
  EC90: > 1 µM
[3]
  Fold Increase (FI) of EC90: > 77
[12]
  Fold Increase (FI) of EC50: > 160
  Fold Increase (FI) of EC90: > 77
[13]
  Fold Increase (FI) of EC50: > 160
  Fold Increase (FI) of EC90: > 77
[9]
  Fold Increase (FI) of EC50: < 0.16
